Measurements published in patent US20240197890A1, “FLAVONE DERIVATIVES AND USES IN TARGETING CK2-MEDIATED DISEASES AND CONDITIONS” (Salk Institute for Biological Studies, priority 2020, published 2024).

How the values were obtained:
[1] = tested on: iGluta neurons co-cultured with BD or CT astrocytes; assay: Neuronal activity of iGluta neurons co-cultured with pretreated astrocytes; type: cell-based, human; details: BD astrocytes pretreated 5 h with IL1β and 20 μM compound, compared to vehicle
Source text: Activity of CT astrocytes is also renormalized (C+vs. D+).

[2] = tested on: CK2α1; assay: CK2 levels in IL1-β-stimulated human primary astrocytes (Western blot); type: cell-based; details: after 5 hours
Experimental: Western blotting. […] Cells were dissociated with 1:1 Accutase:papain for 3 min at rt, pelleted for 5 min at 800 g, and washed twice with cold DPBS. Pellets were lysed with RIPA buffer (Sigma R0278) supplemented with Halt protease inhibitor cocktail (Thermo Fisher 78445) and clarified by centrifugation (16,000 g, 10 min, 4° C.). Protein concentration was determined by BCA assay (Thermo Fisher). Proteins were denatured in 1×LDS Buffer and 2.5% beta-mercaptoethanol (X) for 10 min at 70° C., separated on Bolt 4-12% Bis-Tris Plus polyacrylamide gels (Thermo Fisher), transferred to PVDF membranes using the iBlot 2 Dry Blotting System, and blocked with 0.1% casein-PBS (Bio-Rad) for 1 h at room temperature. The blots were incubated with primary antibodies overnight at 4° C. in PBS containing 0.1% casein and 0.2% Tween-20. Antibodies used: rabbit anti-CK2a1 (Bethyl #, 1:5000), rabbit anti-CK2a2 (Bethyl #, 1:5000), mouse anti-GAPDH (Fitzgerald #10-1501, 1:20,000), mouse anti-NF-KB (CST #6956S, 1:1000), pNF-KB S529 (TFS #14-9864-82, 1:100), LC3B (CST 2775, 1:1000), ACO2 (CST 6922, 1:1000), rabbit HMGB1 (Novus #NB1002322, 1:1000), mouse anti-IκBα (CST #4814S, 1:1000), mouse anti-IκBa pS32 (SC #8404, 1:500), HA-tag (Bethyl #A190-108A, 1:20000). […] The blots were imaged using the Odyssey CLx imaging system and blots were analyzed on the ImageStudio software (LI-COR).

[3] = tested on: AKT pS473; assay: Immunofluorescence of AKT pS473 in IL1β-stimulated primary astrocytes; type: cell-based; details: IL1-β for 5 h
Experimental: Immunotluorescence. […] After treatment, cells were fixed with 4% paraformaldehyde solution for 20 min at room temperature and washed 3× with DPBS for 10 min each. The cells were permeabilized using 5% horse serum and 10% Triton X in DPBS for 15 min at room temperature and blocked with 5% horse serum in PBS for 30 min at room temperature. Cells were incubated with primary antibodies in blocking buffer either overnight at 4° C. or for 2 hours at room temperature. After incubation, cells were washed 3× with PBS, blocked using 5% horse serum in PBS for 30 min at room temperature, and incubated with Cy3 red-labeled or AF488 green-labeled secondary antibodies diluted in blocking buffer for 1 hour at room temperature. The cells were washed once with PBS for 10 min, then counter-stained with DAPI. The cells were washed 3× with PBS and mounted with glass coverslips and Immu-Mount solution. Images were obtained with the Zeiss fluorescent microscope. […]

[4] = tested on: NF-κB pS529; assay: Immunofluorescence of NF-κB and NF-κB pS529 in activated astrocytes; type: cell-based, human; details: after 1 h
Experimental: Immunotluorescence. […] After treatment, cells were fixed with 4% paraformaldehyde solution for 20 min at room temperature and washed 3× with DPBS for 10 min each. The cells were permeabilized using 5% horse serum and 10% Triton X in DPBS for 15 min at room temperature and blocked with 5% horse serum in PBS for 30 min at room temperature. Cells were incubated with primary antibodies in blocking buffer either overnight at 4° C. or for 2 hours at room temperature. After incubation, cells were washed 3× with PBS, blocked using 5% horse serum in PBS for 30 min at room temperature, and incubated with Cy3 red-labeled or AF488 green-labeled secondary antibodies diluted in blocking buffer for 1 hour at room temperature. The cells were washed once with PBS for 10 min, then counter-stained with DAPI. The cells were washed 3× with PBS and mounted with glass coverslips and Immu-Mount solution. Images were obtained with the Zeiss fluorescent microscope. The following primary antibodies were used: rabbit anti-NF-κB (1:400; CST), mouse anti-phospho NF-κB S529 (20 ug/ml; Thermo Fisher), rabbit anti-CK2A1 (1:500; Bethyl), mouse anti-IKb alpha (1:400; CST), mouse anti-phospho IKb alpha (1:50; Santa Cruz), rabbit anti-phospho CK2A1 (1:25; Thermo Fisher), rabbit anti-phospho Cdc37 (1:50; Novus), mouse anti-phospho NF-κB S529 (1:25; R&D), rabbit anti-Cdc37 (1:100; CST), mouse anti-SQSTM1 (1:50; Santa Cruz), anti rabbit-phospho NF-κB S536 (1:1600; CST), anti rabbit-Akt (pan) (1:400; CST), anti mouse-phospho Akt S473 (1:500; Sigma).
To investigate the potential effects of CK2 activity on NF-κB, NF-κB and NF-κB pS529 were measured by immunofluorescence in activated astrocytes. […] At this timepoint, NF-κB pS529 levels were similar across all treatments, possibly as a result of slower turnover by pNF-κB species.

[5] = biological target: T1, recombinant human CK2a1 kinase (Homo sapiens, UniProt P68400); assay: In vitro kinase assay (PhosphoSens, Cysteine-Sox sensor peptide); type: biochemical; details: FIG. 4A
T1 construct: purchased Thermo Fisher PV3248
T1 sequence (P68400 whole entry): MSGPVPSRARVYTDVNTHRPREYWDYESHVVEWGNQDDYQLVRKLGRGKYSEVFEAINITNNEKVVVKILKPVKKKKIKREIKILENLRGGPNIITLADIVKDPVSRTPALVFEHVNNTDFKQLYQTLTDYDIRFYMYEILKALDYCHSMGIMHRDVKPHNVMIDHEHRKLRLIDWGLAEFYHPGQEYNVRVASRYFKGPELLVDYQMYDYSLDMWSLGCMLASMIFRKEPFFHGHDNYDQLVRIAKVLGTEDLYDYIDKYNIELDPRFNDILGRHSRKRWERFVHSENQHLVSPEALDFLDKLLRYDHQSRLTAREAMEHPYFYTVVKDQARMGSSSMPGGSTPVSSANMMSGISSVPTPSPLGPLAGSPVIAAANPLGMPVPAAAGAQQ
Experimental: Kinase assays. In vitro kinase assays were run using the Cysteine-Sox-Kinase Sensor AQT0696, 96 assay Kit (AssayQuant Tech, CSKS-AQT0696). […] Slopes corresponding to linear reaction rates were obtained for each compound concentration (RFU/sec), normalized to DMSO controls, and IC50 values were determined by applying the dose response non-linear regression model in GraphPad Prism. For kinase assays using postmortem brain tissue lysates, brain tissues were homogenized at 4° C. using a Bullet Blender (Next Advance) in kinase buffer (20 mM HEPES 7.4 pH, 150 mM NaCl, 1% Triton-X, 1 mM EDTA, 1 mM EGTA plus Halt Protease and Phosphase Inhibitor Cocktail). After sonication and clarification, protein concentration was measured by BCA Assay. CK2 activity was measured as described above, except lysates were used instead of purified kinase at 2 μL/well (˜0.3-0.4 ug protein per reaction). […] Patient lysates were individually preincubated with 20 μM CX4945 for 30 min at room temperature before initiating kinase kinetic assays.

[6] = tested on: IL6 and IL8 expression in astrocytes; assay: Activation assay, ddPCR of cytokine expression in IL1-β-activated astrocytes; type: cell-based, human; details: astrocytes and microglia; FIG. 1D, FIG. 2C
Experimental: Activation assays and ddPCR. HCA or H1-derived astrocytes were treated with vehicle (DMSO) or 20 μM compound and stimulated with IL1-B 10 ng/mL for 5 h. Cells were scraped into RNA-Bee and total RNA was purified using the Direct-zol RNA kit (Zymo Research). RNA concentration was measured using Nanodrop and RNA was reverse transcribed into cDNA using the High Capacity cDNA Reverse Transcriptase Kit (Applied Biosystems). Reaction mixes consisting of TaqMan FAM probe (IL6, IL8, CSNK2A1, CSNK2A2), control TaqMan ACTB-VIC probe (TFS 4326315E), ddPCR Supermix for Probes (Bio-Rad 186-3024), and cDNA were formed into oil droplets using the QX200 Droplet Generator. After amplification (Bio-Rad C1000 Touch Thermal Cycler) according to manufacturer's instructions, the plate was read in the QX200 Droplet Reader.

## COc1cc(-c2cc(=O)c3c(O)cc(O)cc3o2)ccc1O [CHR, chrysoeriol]
[1]
  neuronal activity (mean firing rate): increased
[2]
  CK2α1 levels: reduced to baseline
[3]
  AKT pS473 levels: reduced
[4]
  IL1-β-induced increase of NF-κB nuclear intensity: blocked
[5]
  inhibition of CK2a1 in vitro (activity class in words): active
[6]
  dose dependence of anti-inflammatory effects: dose-dependent
